Assay results reported in publication PMC6150295, “Synthesis and Biological Evaluation of 2H-Indazole Derivatives: Towards Antimicrobial and Anti-Inflammatory Dual Agents” (Molecules : A Journal of Synthetic Chemistry and Natural …, 2017).
≈ marks a conversion by molar mass, not a printed value. Read-outs that look alike come from different tables or passages of the source.

Columns and labels:
Candida albicans = assay: Disk diffusion susceptibility test; assay type: cell-based; settings: for zone of inhibition at 5000 µg/disc: Candida albicans, read-out: Zone of inhibition at 5 mg per disc (mm) C. albicans
C. glabrata = assay: Minimum inhibitory concentration (antimycotic effect); assay type: cell-based, Candida glabrata; settings: Nakaseomyces glabratus
[1] = test system: Salmonella enterica serovar Typhi; assay: Disk diffusion susceptibility test; assay type: cell-based; settings: for Inhibition (positive / none) S. Typhi: 5 mg per disc, 37 °C, 24 h
[2] = target: T1, human recombinant cyclooxygenase-2 (Homo sapiens, UniProt P35354); assay: COX inhibitor screening assay (Cayman kit); assay type: biochemical; settings: tested at 10 µM
T1 construct: purchased Cayman Chemical 560131
T1 sequence (P35354 18-604): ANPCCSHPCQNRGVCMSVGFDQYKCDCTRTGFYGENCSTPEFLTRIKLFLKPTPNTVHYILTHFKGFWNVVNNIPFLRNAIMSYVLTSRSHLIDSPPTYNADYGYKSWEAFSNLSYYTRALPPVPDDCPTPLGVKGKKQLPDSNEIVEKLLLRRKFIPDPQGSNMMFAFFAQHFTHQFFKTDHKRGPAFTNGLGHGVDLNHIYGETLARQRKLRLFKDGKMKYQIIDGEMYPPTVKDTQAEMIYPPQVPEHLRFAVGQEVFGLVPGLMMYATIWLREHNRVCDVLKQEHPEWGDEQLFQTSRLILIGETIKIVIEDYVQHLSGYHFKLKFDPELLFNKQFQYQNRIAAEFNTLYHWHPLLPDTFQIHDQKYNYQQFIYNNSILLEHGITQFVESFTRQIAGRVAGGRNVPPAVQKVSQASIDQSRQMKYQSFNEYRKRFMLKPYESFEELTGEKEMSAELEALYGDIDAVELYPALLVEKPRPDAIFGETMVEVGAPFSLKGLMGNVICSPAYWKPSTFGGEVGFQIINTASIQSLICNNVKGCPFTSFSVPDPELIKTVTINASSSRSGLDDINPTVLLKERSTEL
Procedure: Additionally, molecular docking studies using AutoDock Vina software (TSRI, La Jolla, CA, USA) were performed to aid in the interpretation of the experimental results. […] Nevertheless, these compounds represent an interesting starting point towards the design of new antiparasitic compounds with an additional COX-2 inhibitory property.
Assays were carried out by duplicate following the instructions provided by the manufacturer.

C. albicans = assay: Minimum inhibitory concentration (antimycotic effect); assay type: cell-based; settings: Candida albicans
[3] = test system: Escherichia coli strain EDL933 (EHEC); assay: Disk diffusion susceptibility test; assay type: cell-based; settings: 5 mg per disc, 37 °C, 24 h
Candida glabrata = assay: Disk diffusion susceptibility test; assay type: cell-based; settings: for zone of inhibition at 5000 µg/disc: Nakaseomyces glabratus, read-out: Zone of inhibition at 5 mg per disc (mm) C. glabrata
[4] = test system: Escherichia coli strain 042 (EAEC); assay: Disk diffusion susceptibility test; assay type: cell-based; settings: 5 mg per disc, 37 °C, 24 h
[5] = test system: Giardia intestinalis isolate IMSS:0981:1; assay: In vitro antiprotozoal assay (trophozoite subculture method); assay type: cell-based; settings: for IC50: Giardia duodenalis, trophozoites, 48 h with compound then 48 h subculture without drug, read-out: IC50 (µM) G. intestinalis
Procedure: (§1) The in vitro antiprotozoal assays against E. histolytica, G. intestinalis, and T. vaginalis of the 2-phenyl-2H-indazole and 2,3-diphenyl-2H-indazole derivatives were carried out following the method previously described. Metronidazole (MTZ) and albendazole (ABZ) were used as reference drugs. […] Similarly, compound 7, having a phenyl at position 2, has good activity against the three protozoa, ranking third in activity for T. vaginalis and forth against G. intestinalis and E. histolytica. […] These derivatives had groups H, COOCH3, Cl, and SO2CH3 at positions 2 and 3, substituents that induced the best response in 2-phenyl-2H-indazole derivatives. In addition, carboxylic acids 20 and 25 were of interest for comparative purposes with ester derivatives.
(§2) Trichomonas vaginalis strain GT3, Giardia intestinalis isolate IMSS:0981:1, and Entamoeba histolytica strain HM1-IMSS were used. Trophozoites of G. intestinalis were maintained in a TYI-S-33 medium supplemented with 10% calf serum and bovine bile. E. histolytica and T. vaginalis trophozoites were maintained in TYI-S-33 medium supplemented with 10% bovine serum. Briefly, 5 × 10^4 trophozoites of G. intestinalis or T. vaginalis, or 6 × 10^3 trophozoites of E. histolytica were incubated for 48 h at 37 °C with different concentrations of the compound to be tested, each added as solutions in DMSO. As a negative control, parasite cultures received an equivalent amount of DMSO only, while albendazole and metronidazole were included as positive controls. At the end of the treatment period, the cells were washed and subcultured for another 48 h in a fresh medium to which no drug was added. […] Experiments were carried out in triplicate and repeated at least twice.

[6] = test system: Trichomonas vaginalis strain GT3; assay: as above; assay type: cell-based; settings: for IC50: Trichomonas vaginalis, GT3, trophozoites, 48 h with compound then 48 h subculture without drug, read-out: IC50 (µM) T. vaginalis
Procedure: as §1, §2

[7] = test system: Entamoeba histolytica strain HM1-IMSS; assay: as above; assay type: cell-based; settings: Entamoeba histolytica; trophozoites, 48 h with compound then 48 h subculture without drug; read-out: IC50 (µM) E. histolytica
Procedure: as §1, §2

Cytotoxicity MTT assay = assay type: cell-based, human; settings: human, 10 µM, 48 h exposure
Procedure: (§3) Biological assays on HaCaT and HeLa cell lines were conducted to gain insight into the cytotoxic effects of these derivatives on human cells, as compared with the effects observed on protozoa. Cellular viability was determined by MTT (3-(4,5-dimethylthiazol-2-yl)-2,5-diphenyltetrazolium bromide) assay. Compounds 18 and 23 were chosen considering their antiprotozoal and anticandidal effect, in addition to their COX-2 inhibitory activity. Additionally, compound 16 was considered as an unsubstituted reference.
(§4) HeLa (human cervical carcinoma) and HaCaT (immortalized human keratinocytes) cells were grown in DMEM (Invitrogen Corporation, Carlsbad, CA, USA) supplemented with 10% FBS (BioWest, Riverside, MO, USA), and maintained in standard culture conditions (37 °C, 95% humidity, and 5% CO2). Cells were allowed to grow to a density of 80% and then were harvested using sterile PBS/EDTA (pH 7.4) before starting every experiment. Cells were seeded in 96-well plates (7000 cells/well in 200 µL of DMEM). After 24 h the cells were exposed to test compounds dissolved in DMSO (J.T. Baker, Phillipsburg, NJ, USA) at different concentrations and diluted in 50 µL of DMEM, to reach 250 µL in the well. The exposure time was 48 h, and then viability was determined by MTT assay. The absorbance of formazan was determined for each well and its viability was related to the vehicle (100%). The IC50 was calculated from dose-response curve by non-linear fit using OriginPro 7.0 software (RockWare, Golden, CO, USA).

HeLa cells = assay: Cytotoxicity MTT assay; assay type: cell-based, human; settings: Homo sapiens, 48 h exposure
Procedure: as §3, §4

HaCaT cells = assay: Cytotoxicity MTT assay; assay type: cell-based, human; settings: Homo sapiens, HaCaT, 48 h exposure
Procedure: as §3, §4

[8] = read-out: % Viability (10 µM) HaCaT Cells
[9] = read-out: % Viability (10 µM) HeLa Cells
[10] = positive control, ketoconazole 50 µg
[11] = 16 relative to 7, 20 compared to 13

Structure (SMILES) | Inhibition (positive / none) C. albicans (Candida albicans; 5 mg per disc, 37 °C, 24 h) | zone of inhibition at 5000 µg/disc (Candida albicans) [mm] | MIC (C. glabrata) [mM] | Inhibition (positive / none) S. Typhi [1] | inhibition at 10 µM [2] [%] | MIC (C. albicans) [mM] | Inhibition (positive / none) E. coli 933 [3] | Inhibition (positive / none) C. glabrata (Candida glabrata; 5 mg per disc, 37 °C, 24 h) | zone of inhibition at 5000 µg/disc (Candida glabrata) [mm] | Inhibition (positive / none) E. coli 042 [4] | IC50 [5] [µM] | IC50 [6] [µM] | IC50 [7] [µM] | melting point [°C] | viability at 48 h, 10 µM (Cytotoxicity MTT assay; [8]) [%] | viability at 48 h, 10 µM (Cytotoxicity MTT assay; [9]) [%] | % of Inhibition of COX-2 [2] | also measured
COC(=O)c1ccc(-n2nc3ccccc3c2-c2ccccc2)cc1 [Compound 18, Methyl 4-(3-phenyl-2H-indazol-2-yl) benzoate] | + | 10 | 15.2 (≈ 5000 µg/mL) | - | 50 ± 9.49 | 3.81 (≈ 1250 µg/mL) | - | + | 3 | - | 0.0959 ± 0.0022 | 0.102 ± 0.0151 | 0.0502 ± 0.0022 | 152.4 to 154.9 | 96.2 ± 4.14 | 94.1 ± 3.31 |  | times more active than metronidazole against G. intestinalis ([5]; ratio of IC50 values): 12.8 times
CC(=O)N1CCN(c2ccc(OCC3COC(Cn4ccnc4)(c4ccc(Cl)cc4Cl)O3)cc2)CC1 (stereo not shown) [Ketoconazole, reference compound] |  |  | 0.079 (≈ 42 µg/mL) |  |  | 0.045 (≈ 23.9 µg/mL) |  |  |  |  |  |  |  |  |  |  |  | Inhibition (positive / none) C. albicans (Candida albicans; [10]): +; Inhibition (positive / none) C. glabrata (Candida glabrata; [10]): +
c1ccc(-c2c3ccccc3nn2-c2ccccc2)cc1 [Compound 16, 2,3-Diphenyl-2H-indazole] | - |  |  | - |  |  | - | - |  | - | 0.0518 ± 0.0052 | 0.0573 ± 0.0026 | 0.303 ± 0.0105 | 107.4 to 107.9 | 95 ± 2.44 | 93 ± 4.57 | Inactive | improvement in potency against G. intestinalis relative to the analog [5, 11]: two-fold; improvement in potency against T. vaginalis relative to the analog [6, 11]: two-fold; IC50 (HeLa cells): 125 ± 29.6 µM; IC50 (HaCaT cells): 93.7 ± 17.3 µM
COC(=O)c1ccc(-c2c3ccccc3nn2-c2ccccc2)cc1 [Compound 23, Methyl 4-(2-phenyl-2H-indazol-3-yl) benzoate] | + | 13 | 15.2 (≈ 5000 µg/mL) | - | 36.4 ± 1.7 | 3.81 (≈ 1250 µg/mL) | - | + | 4 | - | 0.119 ± 0.0086 | 0.143 ± 0.0043 | 0.0731 ± 0.0086 | 164.5 to 166.3 | 97.8 ± 5.19 | 93.7 ± 7.48 |  | 
c1ccc(-n2cc3ccccc3n2)cc1 [Compound 7, 2-Phenyl-2H-indazole] | - |  |  | + |  |  | - | - |  | - | 0.113 ± 0.0218 | 0.118 ± 0.0218 | 0.0798 ± 0.0036 | 81.2 to 81.6 |  |  | Inactive | zone of inhibition at 5000 µg/disc ([1]; Salmonella enterica, TYPHI, read-out: Zone of inhibition at 5 mg per disc (mm) S. Typhi): 9 mm
